Assay results: US7358267B2, “Bis-aryl thiazole derivatives” (Amgen Inc., priority 2001, dated 2008)

How the values were obtained:
UCP3 = UCP3 RNA induction in rat L6 cells (QPCR); format: cell-based; design: key to UCP3 RNA induction, Induction at 10 μM: ++ denotes greater than 10-fold induction; + denotes 10-fold or less induction; — denotes no induction
Method: Table 1 provides QPCR data (ABI 7700 Sequence Detection System) for exemplary compounds of formula I evaluated for UCP3 RNA induction in L6 cells from rats. The assay is described in Example 14.4, below.
Rat UCP3 (L6 cells) QPCR Protocol
1. (Day1) Plate 300,000 L6 cells per well (24 well plate) in Minimum Essential Medium-Alpha Medium with 2% FBS and Antibiotic/Antimycotic Solution added. Incubate for 2 days and change to fresh medium (Day3). Incubate 1 more day.
2. (Day 4) Add compound at desired concentration. Incubate for 18-20 h. 2 wells per compound. 4-wells of DMSO controls per plate.
3. (Day 5) Prepare RNA from cells: • (1) Aspirate media and lyse cells directly on plate by adding 500 μL of Trizol Reagent (Gibco BRL) to each well and passing the lysate several times through a pipette. Transfer lysate to eppendorf tubes (combining the lysate from identical compound treatments). • (2) Add 200 μL of chloroform to the 1 mL of lysate. Vortex to mix and incubate at room temp. for 2-3 min. Spin samples in a microfuge at 12,000 rpm for 15 min. at 4° C. • (3) Transfer the aqueous phase to a fresh tube. Precipitate the RNA from the aqueous phase by adding 500 μL of isopropanol and mixing well. Incubate at −20° C. for at least 15 min. Pellet the RNA by spinning at 12,000 rpm for 10 min. at 4° C. • (4) Remove the supernatant and wash the RNA pellet with 500 μL of 75% ethanol. Spin at 10,000 rpm for 5 min. at 4° C. • (5) Remove the supernatant and allow pellet to air dry briefly. Dissolve RNA in 15 μL of RNase-free water. Store at −80° C. Electrophorese some RNA to check quality.
4. QPCR (50 μL reactions in 96 well MicroAmp Optical Plate): TaqMan Gold RT-PCR Reagents (PE catalog #N808-0232): OD RNA and dilute to 5 ng/μL in RNase-free water. All samples run in duplicate with UCP3 and m18S probe/primers
Add 40 μL of Reaction Mix to 10 μL of diluted RNA (50 ng total) on QPCR plate PCR Cycling Parameters • 48° C. 30 min. • 95° C. 10 min. • 40 cycles: 95° C. 15 sec. • 58° C. 1.5 min. QPCR Primers/Probes

UCP3 protein = UCP3 protein induction in vivo in skeletal muscle after oral dosing (Western blot); details: skeletal muscle tissue from Sprague-Dawley rats
Method: UCP3 protein was induced 2- to 3-fold in vivo (skeletal muscle tissue from Sprague-Dawley rats) after oral dosing with compound 1 (Western blot).
1. Isolate rat or mouse skeletal muscle and snap freeze in liquid nitrogen. Grind into a fine powder using mortar and pestle and transfer to an eppendorf tube.
2. Resuspend skeletal muscle in Buffer 1 (0.15 mM MgCl2, 10 mM KCl, 10 mM Tris-HCl, pH 6.7, stored at 4° C.).
3. Place resuspended cells on ice for 2 min. Homogenize using either Potter-Eleuhjem Teflon homogenizer and glass dounce or using hand held homogenizer for 2 min.
4. Add sucrose (1 M) to a final concentration of 0.25 M and spin at 1500 g (4000 rpm in microfuge) for 3 min. to remove nuclei.
5. Take the supernatant fraction and pellet the mitochondria by centrifugation at 10000 rpm for 10 min.
6. Resuspend pellet in 500 μl Buffer 2 (0.15 mM MgCl2, […], 10 mM Tris-HCl, pH 6.7, stored at 2-4° C.).
9. Resuspend final mitochondrial pellet in 2 7 μl Buffer 3 (0.25 M Sucrose, 10 mM Tris-acetate, pH 7.0, 3 μl 10× protease inhibitor cocktail (BMB), stored at 4° C.).
10. Determine protein concentration with BioRad protein assay dye (Bradford Reagent). 1 μl protein in 100 μl 1× Bradford Reagent. OD595 with BSA standard curve (1 μg/μl-50 μg/μl).
For antiUCP3 Westerns use 60 μg protein. Run precast 10% gels until dye front is about 1 cm from bottom of gel. […]

RXRα = biological target: T1, RXRα (Homo sapiens, UniProt P19793); assay: RXRα induction in HEK 293 cells (transient transfection, luciferase reporter); format: cell-based
T1 construct: expressed in transfected cells; host or cells: HEK 293 cells
T1 sequence (P19793 1-462): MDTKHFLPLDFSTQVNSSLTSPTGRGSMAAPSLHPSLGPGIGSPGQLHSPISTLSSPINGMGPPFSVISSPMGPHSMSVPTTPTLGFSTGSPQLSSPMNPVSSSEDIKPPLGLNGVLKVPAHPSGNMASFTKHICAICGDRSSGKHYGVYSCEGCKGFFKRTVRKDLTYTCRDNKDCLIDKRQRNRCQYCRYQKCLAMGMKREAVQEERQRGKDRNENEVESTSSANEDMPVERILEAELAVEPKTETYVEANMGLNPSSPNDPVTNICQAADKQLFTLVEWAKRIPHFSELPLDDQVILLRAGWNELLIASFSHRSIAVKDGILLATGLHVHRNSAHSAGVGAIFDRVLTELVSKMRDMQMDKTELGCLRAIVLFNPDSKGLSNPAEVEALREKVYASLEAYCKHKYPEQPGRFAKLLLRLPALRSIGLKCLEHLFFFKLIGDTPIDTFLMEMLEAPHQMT
Method: Table 2 provides QPCR data (ABI 7700 Sequence Detection System) for exemplary compounds of formula I evaluated for RXR induction in HEK 293 cells, following a general protocol, briefly described below. See Naeger et al. (1999) J. Biol. Chem. 274:1875-1878 for a related cell-based assay.
DNA constructs containing a luciferase reporter plasmid and another plasmid which contained an activation domain (e.g., RXRα) were transiently transfected into HEK 293 cells. The cells were treated with the compounds and luciferase activity was measured using a luminometer. Fold induction was determined by comparing the luciferase activity of treated cells to the activity of untreated cells.

SMILES | fold induction at 10 µM (UCP3) | UCP3 protein induction (UCP3 protein) | RXRα RNA induction at 1 μM (RXRα) | RXRα RNA induction at 3 μM (RXRα) | RXRα RNA induction at 10 μM (RXRα) | melting point | UCP3 RNA induction, Induction at 10 μM (UCP3)
Cc1c(C(=O)O)cnn1-c1nc(-c2cccc(C(F)(F)F)c2)cs1 [Compound 1, 1-[4-(3-(Trifluoromethyl)phenyl)thiazol-2-yl]-5-methylpyrazole-4-carboxylic acid] | > 10 | 2- to 3 fold | ++ (++ denotes greater than 5-fold induction) | + (+ denotes 5-fold or less induction) | + (+ denotes 5-fold or less induction) | 226.7 to 227.5 °C | 
Cc1c(C(=O)O)cnn1-c1nc(-c2ccc(C(F)(F)F)cc2)cs1 [Compound 2, 1-[4-(4-(Trifluoromethyl)phenyl)thiazol-2-yl]-5-methylpyrazole-4-carboxylic acid] | > 10 |  | + (+ denotes 5-fold or less induction) | + (+ denotes 5-fold or less induction) | + (+ denotes 5-fold or less induction) | 273 to 274 °C | 
Cc1c(C(=O)O)cnn1-c1nc(-c2ccc(Cl)c(Cl)c2)cs1 [Compound 3, 1-[4-(3,4-Dichlorophenyl)thiazol-2-yl]-5-methylpyrazole-4-carboxylic acid] | > 10 |  | + (+ denotes 5-fold or less induction) | + (+ denotes 5-fold or less induction) | + (+ denotes 5-fold or less induction) | 278 to 278.6 °C | 
Cc1c(C(=O)O)cnn1-c1nc(-c2ccccc2C(F)(F)F)cs1 [Compound 7, 1-[4-(2-(Trifluoromethyl)phenyl)thiazol-2-yl]-5-methylpyrazole-4-carboxylic acid] | > 10 |  | + (+ denotes 5-fold or less induction) | + (+ denotes 5-fold or less induction) | + (+ denotes 5-fold or less induction) | 215.5 to 216.5 °C | 
Cc1c(C(=O)O)cnn1-c1nc(-c2ccc3ccccc3c2)cs1 [Compound 9, 1-[4-(2-Naphthyl)thiazol-2-yl]-5-methylpyrazole-4-carboxylic acid] |  |  | + (+ denotes 5-fold or less induction) | + (+ denotes 5-fold or less induction) | + (+ denotes 5-fold or less induction) | 273.1 to 274.3 °C | —
Cc1c(C(=O)O)cnn1-c1nc(-c2cc(C(F)(F)F)cc(C(F)(F)F)c2)cs1 [Compound 10, 1-[4-(3,5-Bis(trifluoromethyl)phenyl)thiazol-2-yl]-5-methylpyrazole-4-carboxylic acid] | ≤ 10 |  | + (+ denotes 5-fold or less induction) | ++ (++ denotes greater than 5-fold induction) | + (+ denotes 5-fold or less induction) | 260.9 to 261.4 °C | 
O=C(O)c1cnn(-c2nc(-c3cc(C(F)(F)F)cc(C(F)(F)F)c3)cs2)c1C(F)(F)F [Compound 13, 1-[4-(3,5-Bis(trifluoromethyl)phenyl)thiazol-2-yl]-5-(trifluoromethyl)pyrazole-4-carboxylic acid] | ≤ 10 |  | + (+ denotes 5-fold or less induction) | + (+ denotes 5-fold or less induction) | + (+ denotes 5-fold or less induction) | 204 to 204.7 °C | 
